Assay results taken from patent publication US6358885B1, “Substituted phenylheterocyclic herbicides” (Mississippi State University, priority 1992, dated 2002).

How the values were obtained:
umbrella sedge = assay: Test D paddy water application plant response rating 0 to 100; type: in vivo, Cyperus difformis; settings: 0 to 100 scale, approx. 21 days
Text: (§1) Plastic pots were partially filled with silt loam soil. The soil was then saturated with water. […] After planting, water levels were raised to 3 cm above the soil surface and maintained at this level throughout the test. Chemical treatments were formulated in a non-phytotoxic solvent and applied directly to the paddy water. Treated plants and controls were maintained in a greenhouse for approximately 21 days, after which all species were compared to controls and visually evaluated. […] A dash (-) response means no test result.

arrowhead = assay: as above; type: in vivo, Sagittaria spp.; settings: 0 to 100 scale, approx. 21 days
Text: as §1

Japonica rice [1] = assay: as above; type: in vivo, Oryza sativa; settings: 0 to 100 scale, approx. 21 days
Text: as §1

barnyardgrass [2] = assay: as above; type: in vivo, Echinochloa crus-galli; settings: 0 to 100 scale, approx. 21 days
Text: as §1

duck salad = assay: as above; type: in vivo, Heteranthera limosa; settings: 0 to 100 scale, approx. 21 days
Text: as §1

waterchestnut = assay: as above; type: in vivo, Eleocharis spp.; settings: 0 to 100 scale, approx. 21 days
Text: as §1

barnyardgrass [3] = assay: Test E paddy water application plant response rating 0 to 100; type: in vivo, Echinochloa crus-galli; settings: Flood, 0 to 100 scale, approx. 21 days
Text: (§2) Plastic pots were partially filled with silt loam soil. […] At testing, the water level for all plantings was raised to 2 cm above the soil surface. Chemical treatments were formulated in a non-phytotoxic solvent and applied directly to the paddy water. Treated plants and controls were maintained in a greenhouse for approximately 21 days, after which all species were compared to controls and visually evaluated. […] A dash (-) response means no test result.

Japonica rice [4] = assay: as above; type: in vivo, oryza sativa; settings: Flood, 0 to 100 scale, approx. 21 days
Text: as §2

## CC(C)N1C(=O)COc2cc(F)c(-c3nn4c(c3Cl)CCCC4)cc21 [Compound 31]
Umbrella sedge; Rate 4 g/ha
  Umbrella sedge plant response rating: 0
Umbrella sedge; Rate 8 g/ha
  Umbrella sedge plant response rating: 0
Umbrella sedge; Rate 16 g/ha
  Umbrella sedge plant response rating: 20
Umbrella sedge; Rate 32 g/ha
  Umbrella sedge plant response rating: 65
Umbrella sedge; Rate 64 g/ha
  Umbrella sedge plant response rating: 75
arrowhead; Rate 4 g/ha
  Arrowhead plant response rating: 50
arrowhead; Rate 8 g/ha
  Arrowhead plant response rating: 60
arrowhead; Rate 16 g/ha
  Arrowhead plant response rating: 85
arrowhead; Rate 32 g/ha
  Arrowhead plant response rating: 100
arrowhead; Rate 64 g/ha
  Arrowhead plant response rating: 100
Japonica rice [1]; Rate 4 g/ha
  Japonica rice plant response rating: 10
Japonica rice [1]; Rate 8 g/ha
  Japonica rice plant response rating: 15
Japonica rice [1]; Rate 16 g/ha
  Japonica rice plant response rating: 20
Japonica rice [1]; Rate 32 g/ha
  Japonica rice plant response rating: 25
Japonica rice [1]; Rate 64 g/ha
  Japonica rice plant response rating: 30
Barnyardgrass [2]; Rate 4 g/ha
  Barnyardgrass 2 plant response rating: 0
Barnyardgrass [2]; Rate 8 g/ha
  Barnyardgrass 2 plant response rating: 0
Barnyardgrass [2]; Rate 16 g/ha
  Barnyardgrass 2 plant response rating: 30
Barnyardgrass [2]; Rate 32 g/ha
  Barnyardgrass 2 plant response rating: 40
Barnyardgrass [2]; Rate 64 g/ha
  Barnyardgrass 2 plant response rating: 60
Duck salad; Rate 4 g/ha
  Duck salad plant response rating: 0
Duck salad; Rate 8 g/ha
  Duck salad plant response rating: 0
Duck salad; Rate 16 g/ha
  Duck salad plant response rating: 0
Duck salad; Rate 32 g/ha
  Duck salad plant response rating: 0
Duck salad; Rate 64 g/ha
  Duck salad plant response rating: 0

## C#CCN1C(=O)COc2cc(F)c(-c3nn4c(c3Cl)CCCC4)cc21 [Compound 34]
Umbrella sedge; Rate 4 g/ha
  Umbrella sedge plant response rating: 0
Umbrella sedge; Rate 8 g/ha
  Umbrella sedge plant response rating: 20
Umbrella sedge; Rate 16 g/ha
  Umbrella sedge plant response rating: 50
Umbrella sedge; Rate 32 g/ha
  Umbrella sedge plant response rating: 70
Umbrella sedge; Rate 64 g/ha
  Umbrella sedge plant response rating: 80
arrowhead; Rate 4 g/ha
  Arrowhead plant response rating: 85
arrowhead; Rate 8 g/ha
  Arrowhead plant response rating: 90
arrowhead; Rate 16 g/ha
  Arrowhead plant response rating: 90
arrowhead; Rate 32 g/ha
  Arrowhead plant response rating: 100
arrowhead; Rate 64 g/ha
  Arrowhead plant response rating: 100
waterchestnut; Rate 4 g/ha
  Waterchestnut plant response rating: 20
waterchestnut; Rate 8 g/ha
  Waterchestnut plant response rating: 20
waterchestnut; Rate 32 g/ha
  Waterchestnut plant response rating: 20
waterchestnut; Rate 64 g/ha
  Waterchestnut plant response rating: 20
Barnyardgrass [3]; Rate 16 g/ha
  Barnyardgrass 2 plant response rating: 85
  Barnyardgrass 3 plant response rating: 35
Barnyardgrass [3]; Rate 32 g/ha
  Barnyardgrass 2 plant response rating: 90
  Barnyardgrass 3 plant response rating: 45
Barnyardgrass [3]; Rate 64 g/ha
  Barnyardgrass 2 plant response rating: 95
  Barnyardgrass 3 plant response rating: 45
Barnyardgrass [3]; Rate 125 g/ha
  Barnyardgrass 2 plant response rating: 100
  Barnyardgrass 3 plant response rating: 50
Barnyardgrass [3]; Rate 250 g/ha
  Barnyardgrass 2 plant response rating: 100
  Barnyardgrass 3 plant response rating: 95
Japonica rice [1]; Rate 4 g/ha
  Japonica rice plant response rating: 20
Japonica rice [1]; Rate 8 g/ha
  Japonica rice plant response rating: 30
Japonica rice [1]; Rate 16 g/ha
  Japonica rice plant response rating: 55
Japonica rice [1]; Rate 32 g/ha
  Japonica rice plant response rating: 40
Japonica rice [1]; Rate 64 g/ha
  Japonica rice plant response rating: 50
Barnyardgrass [2]; Rate 4 g/ha
  Barnyardgrass 2 plant response rating: 0
Barnyardgrass [2]; Rate 8 g/ha
  Barnyardgrass 2 plant response rating: 10
Barnyardgrass [2]; Rate 16 g/ha
  Barnyardgrass 2 plant response rating: 20
Barnyardgrass [2]; Rate 32 g/ha
  Barnyardgrass 2 plant response rating: 30
Barnyardgrass [2]; Rate 64 g/ha
  Barnyardgrass 2 plant response rating: 50
Duck salad; Rate 4 g/ha
  Duck salad plant response rating: 0
Duck salad; Rate 8 g/ha
  Duck salad plant response rating: 0
Duck salad; Rate 16 g/ha
  Duck salad plant response rating: 0
Duck salad; Rate 32 g/ha
  Duck salad plant response rating: 0
Duck salad; Rate 64 g/ha
  Duck salad plant response rating: 60
Japonica rice [4]; Rate 16 g/ha
  Japonica 1 plant response rating: 75
  Japonica 2 plant response rating: 25
Japonica rice [4]; Rate 32 g/ha
  Japonica 1 plant response rating: 85
  Japonica 2 plant response rating: 30
Japonica rice [4]; Rate 64 g/ha
  Japonica 1 plant response rating: 95
  Japonica 2 plant response rating: 45
Japonica rice [4]; Rate 125 g/ha
  Japonica 1 plant response rating: 98
  Japonica 2 plant response rating: 60
Japonica rice [4]; Rate 250 g/ha
  Japonica 1 plant response rating: 100
  Japonica 2 plant response rating: 95

## C=C(Cl)COc1cc(-c2nn3c(c2Cl)CCCC3)c(F)cc1Cl [Compound 40]
Umbrella sedge; Rate 4 g/ha
  Umbrella sedge plant response rating: 0
Umbrella sedge; Rate 8 g/ha
  Umbrella sedge plant response rating: 0
Umbrella sedge; Rate 16 g/ha
  Umbrella sedge plant response rating: 15
Umbrella sedge; Rate 32 g/ha
  Umbrella sedge plant response rating: 30
Umbrella sedge; Rate 64 g/ha
  Umbrella sedge plant response rating: 80
arrowhead; Rate 4 g/ha
  Arrowhead plant response rating: 0
arrowhead; Rate 8 g/ha
  Arrowhead plant response rating: 0
arrowhead; Rate 16 g/ha
  Arrowhead plant response rating: 0
arrowhead; Rate 32 g/ha
  Arrowhead plant response rating: 0
arrowhead; Rate 64 g/ha
  Arrowhead plant response rating: 0
waterchestnut; Rate 4 g/ha
  Waterchestnut plant response rating: 20
waterchestnut; Rate 8 g/ha
  Waterchestnut plant response rating: 20
waterchestnut; Rate 16 g/ha
  Waterchestnut plant response rating: 30
waterchestnut; Rate 32 g/ha
  Waterchestnut plant response rating: 30
waterchestnut; Rate 64 g/ha
  Waterchestnut plant response rating: 60
Barnyardgrass [3]; Rate 8 g/ha
  Barnyardgrass 2 plant response rating: 15
  Barnyardgrass 3 plant response rating: 25
Barnyardgrass [3]; Rate 16 g/ha
  Barnyardgrass 2 plant response rating: 25
  Barnyardgrass 3 plant response rating: 20
Barnyardgrass [3]; Rate 32 g/ha
  Barnyardgrass 2 plant response rating: 45
  Barnyardgrass 3 plant response rating: 35
Barnyardgrass [3]; Rate 64 g/ha
  Barnyardgrass 2 plant response rating: 60
  Barnyardgrass 3 plant response rating: 40
Barnyardgrass [3]; Rate 125 g/ha
  Barnyardgrass 2 plant response rating: 85
  Barnyardgrass 3 plant response rating: 50
Japonica rice [1]; Rate 4 g/ha
  Japonica rice plant response rating: 10
Japonica rice [1]; Rate 8 g/ha
  Japonica rice plant response rating: 10
Japonica rice [1]; Rate 16 g/ha
  Japonica rice plant response rating: 15
Japonica rice [1]; Rate 32 g/ha
  Japonica rice plant response rating: 20
Japonica rice [1]; Rate 64 g/ha
  Japonica rice plant response rating: 30
Barnyardgrass [2]; Rate 4 g/ha
  Barnyardgrass 2 plant response rating: 20
Barnyardgrass [2]; Rate 8 g/ha
  Barnyardgrass 2 plant response rating: 65
Barnyardgrass [2]; Rate 16 g/ha
  Barnyardgrass 2 plant response rating: 70
Barnyardgrass [2]; Rate 32 g/ha
  Barnyardgrass 2 plant response rating: 100
Barnyardgrass [2]; Rate 64 g/ha
  Barnyardgrass 2 plant response rating: 100
Duck salad; Rate 4 g/ha
  Duck salad plant response rating: 0
Duck salad; Rate 8 g/ha
  Duck salad plant response rating: 0
Duck salad; Rate 16 g/ha
  Duck salad plant response rating: 0
Duck salad; Rate 32 g/ha
  Duck salad plant response rating: 0
Duck salad; Rate 64 g/ha
  Duck salad plant response rating: 45
Japonica rice [4]; Rate 8 g/ha
  Japonica 1 plant response rating: 15
  Japonica 2 plant response rating: 10
Japonica rice [4]; Rate 16 g/ha
  Japonica 1 plant response rating: 10
  Japonica 2 plant response rating: 15
Japonica rice [4]; Rate 32 g/ha
  Japonica 1 plant response rating: 15
  Japonica 2 plant response rating: 20
Japonica rice [4]; Rate 64 g/ha
  Japonica 1 plant response rating: 15
  Japonica 2 plant response rating: 15
Japonica rice [4]; Rate 125 g/ha
  Japonica 1 plant response rating: 20
  Japonica 2 plant response rating: 20

## C=CCN1C(=O)COc2cc(F)c(-c3nn4c(c3Br)CCCC4)cc21 [Compound 41]
Barnyardgrass [3]; Rate 8 g/ha
  Barnyardgrass 2 plant response rating: 25
  Barnyardgrass 3 plant response rating: 20
Barnyardgrass [3]; Rate 16 g/ha
  Barnyardgrass 2 plant response rating: 30
  Barnyardgrass 3 plant response rating: 25
Barnyardgrass [3]; Rate 32 g/ha
  Barnyardgrass 2 plant response rating: 55
  Barnyardgrass 3 plant response rating: 35
Barnyardgrass [3]; Rate 64 g/ha
  Barnyardgrass 2 plant response rating: 65
  Barnyardgrass 3 plant response rating: 45
Barnyardgrass [3]; Rate 125 g/ha
  Barnyardgrass 2 plant response rating: 98
  Barnyardgrass 3 plant response rating: 55
Japonica rice [4]; Rate 8 g/ha
  Japonica 1 plant response rating: 25
  Japonica 2 plant response rating: 15
Japonica rice [4]; Rate 16 g/ha
  Japonica 1 plant response rating: 35
  Japonica 2 plant response rating: 20
Japonica rice [4]; Rate 32 g/ha
  Japonica 1 plant response rating: 45
  Japonica 2 plant response rating: 30
Japonica rice [4]; Rate 64 g/ha
  Japonica 1 plant response rating: 65
  Japonica 2 plant response rating: 45
Japonica rice [4]; Rate 125 g/ha
  Japonica 1 plant response rating: 95
  Japonica 2 plant response rating: 55
